Experimental data as given in patent US8431556B2, “C-21-keto lupane derivatives preparation and use thereof” (Vertex Pharmaceuticals Incorporated, priority 2008, dated 2013).

System: HIV-1 (HIVIIIB)
Assay: HIV-1 replication in MT2 cell line with and without 30% human serum (viral RT activity in supernatant)
Format: cell-based
Conditions: Human immunodeficiency virus 1, MT2, MT-2 cells, with 30% human serum, average IC50 if tested more than once, read-out: MT-2 (HIVIIIB) with 30% HS IC50 range
Protocol: HIV-1 Replication in MT2 cell line with and without 30% human serum: The cells are infected at a Multiciplicity of Infection (MOI) of 0.5 for 3 h and then washed twice with complete media to remove residual virus. Cells are then resuspended at 0.5×10^6/ml in complete medium (RPMI, 10% FBS, 1% sodium pyruvate), and seeded into 96-well plates (6.25×10^4/well). The cells are cultured in the presence or absence of various concentrations of test compounds in serial dilutions for 3 days at 37° C. The test compounds are serially diluted in complete medium supplemented or not with 30% human serum. After 3 days, 100 μL of cultured medium with cells are replaced with 120 μL of freshly diluted test compounds in complete medium containing or not 30% Human serum. The level of HIV-1 replication is determined at days 5 after infection by the presence of viral RT activity in harvested supernatant fluid. The IC50 and IC90 values for the virus replication are determined by using GRAPHPAD PRISM software.
The IC50 of the compounds tested in accordance with the HIV replication activity assay MT-2 (HIVIIIB) are represented in Table 4 (without HS) and Table 5 (with 30% HS)

`CC(C)C1=C2[C@H]3CC[C@@H]4[C@@]5(C)CC[C@H](OC(=O)CC(C)(C)C(=O)O)C(C)(C)[C@@H]5CC[C@@]4(C)[C@]3(C)CC[C@@]2(C(=O)Nc2cccnc2)CC1=O` [9-26, 3β-O-(3′,3′-Dimethylsuccinyl)-21-oxolup-18-en-28-oic acid N-pyridin-3-yl-acetamide] and `CC(C)C1=C2[C@H]3CC[C@@H]4[C@@]5(C)CC[C@H](OC(=O)CC(C)(C)C(=O)O)C(C)(C)[C@@H]5CC[C@@]4(C)[C@]3(C)CC[C@@]2(C(=O)Nc2cncnc2)CC1=O` [9-51, 3β-O-(3′,3′-Dimethylsuccinyl)-21-oxolup-18-en-28-oic acid N-pyrimidin-5-yl-acetamide] cannot be ordered by IC50: under 199 nM for the first, under 199 nM for the second.

`CC(C)C1=C2[C@H]3CC[C@@H]4[C@@]5(C)CC[C@H](OC(=O)CC(C)(C)C(=O)O)C(C)(C)[C@@H]5CC[C@@]4(C)[C@]3(C)CC[C@@]2(C(=O)N2CCN(C(=O)OC(C)(C)C)CC2)CC1=O` [9-27, 3β-O-(3′,3′-Dimethylsuccinyl)-21-oxolup-18-en-28-oic acid N-1-acetyl-piperazine-4-carboxylic acid tert-butyl ester] and `COC(=O)N1CCN(C(=O)[C@@]23CC[C@]4(C)[C@H](CC[C@@H]5[C@@]6(C)CC[C@H](OC(=O)CC(C)(C)C(=O)O)C(C)(C)[C@@H]6CC[C@]54C)C2=C(C(C)C)C(=O)C3)CC1` [9-40, 3β-O-(3′,3′-Dimethylsuccinyl)-21-oxolup-18-en-28-oic acid N-1-acetyl-piperazine-4-carboxylic acid methyl ester] cannot be ordered by IC50: under 199 nM for the first, under 199 nM for the second.

`CC(C)C1=C2[C@H]3CC[C@@H]4[C@@]5(C)CC[C@H](OC(=O)CC(C)(C)C(=O)O)C(C)(C)[C@@H]5CC[C@@]4(C)[C@]3(C)CC[C@@]2(C(=O)N2CCNCC2)CC1=O` [9-28, 3β-O-(3′,3′-Dimethylsuccinyl)-21-oxolup-18-en-28-oic acid N-piperazinyl-acetamide] and `CC(C)C1=C2[C@H]3CC[C@@H]4[C@@]5(C)CC[C@H](OC(=O)CC(C)(C)C(=O)O)C(C)(C)[C@@H]5CC[C@@]4(C)[C@]3(C)CC[C@@]2(C(=O)N2CCNC(=O)C2)CC1=O` [9-37, 3β-O-(3′,3′-Dimethylsuccinyl)-21-oxolup-18-en-28-oic acid N-4-piperazi-2-one acetamide] cannot be ordered by IC50: under 199 nM for the first, under 199 nM for the second.

First: CC(C)C1=C2[C@H]3CC[C@@H]4[C@@]5(C)CC[C@H](OC(=O)CC(C)(C)C(=O)O)C(C)(C)[C@@H]5CC[C@@]4(C)[C@]3(C)CC[C@@]2(C(=O)NC2CCNCC2)CC1=O [9-31, 3β-O-(3′,3′-Dimethylsuccinyl)-21-oxolup-18-en-28-oic acid N-(4-aminopiperidine)-acetamide]
Second: CC(=O)N1CCC(NC(=O)[C@@]23CC[C@]4(C)[C@H](CC[C@@H]5[C@@]6(C)CC[C@H](OC(=O)CC(C)(C)C(=O)O)C(C)(C)[C@@H]6CC[C@]54C)C2=C(C(C)C)C(=O)C3)CC1 [9-32, 3β-O-(3′,3′-Dimethylsuccinyl)-21-oxolup-18-en-28-oic acid N-(4-amino-N-1-acetyl-piperidine)-acetamide]
The IC50 of the first is higher: 200 to 999 nM for the first, under 199 nM for the second.

`CC(C)C1=C2[C@H]3CC[C@@H]4[C@@]5(C)CC[C@H](OC(=O)CC(C)(C)C(=O)O)C(C)(C)[C@@H]5CC[C@@]4(C)[C@]3(C)CC[C@@]2(C(=O)NC(C)c2ccccc2)CC1=O` (stereo partly drawn) [9-33, 3β-O-(3′,3′-Dimethylsuccinyl)-21-oxolup-18-en-28-oic acid N-(1-phenyl-ethyl)-acetamide] and `CC(C)C1=C2[C@H]3CC[C@@H]4[C@@]5(C)CC[C@H](OC(=O)CC(C)(C)C(=O)O)C(C)(C)[C@@H]5CC[C@@]4(C)[C@]3(C)CC[C@@]2(C(=O)NC(C)(C)c2ccccc2)CC1=O` [9-34, 3β-O-(3′,3′-Dimethylsuccinyl)-21-oxolup-18-en-28-oic acid N-(1-methyl-1-phenyl-ethyl)-acetamide] cannot be ordered by IC50: under 199 nM for the first, under 199 nM for the second.

`CC(C)C1=C2[C@H]3CC[C@@H]4[C@@]5(C)CC[C@H](OC(=O)CC(C)(C)C(=O)O)C(C)(C)[C@@H]5CC[C@@]4(C)[C@]3(C)CC[C@@]2(C(=O)N2C3CCC2CN(C(=O)c2ccccc2)C3)CC1=O` [9-36, 3β-O-(3′,3′-Dimethylsuccinyl)-21-oxolup-18-en-28-oic acid N-(8-amino-3,8-diaza-bicyclo[3.2.1]octane-3-benzamide)-acetamide] and `CC(C)C1=C2[C@H]3CC[C@@H]4[C@@]5(C)CC[C@H](OC(=O)CC(C)(C)C(=O)O)C(C)(C)[C@@H]5CC[C@@]4(C)[C@]3(C)CC[C@@]2(C(=O)N2C3CCC2CN(C(=O)OC(C)(C)C)C3)CC1=O` [9-50, 3β-O-(3′,3′-Dimethylsuccinyl)-21-oxolup-18-en-28-oic acid N-8-acetylamino-3,8-diaza-bicyclo[3.2.1]octane-3-carboxylic acid tert-butyl ester] cannot be ordered by IC50: under 199 nM for the first, under 199 nM for the second.

`CC(C)C1=C2[C@H]3CC[C@@H]4[C@@]5(C)CC[C@H](OC(=O)CC(C)(C)C(=O)O)C(C)(C)[C@@H]5CC[C@@]4(C)[C@]3(C)CC[C@@]2(C(=O)Nc2ncccn2)CC1=O` [9-38, 3β-O-(3′,3′-Dimethylsuccinyl)-21-oxolup-18-en-28-oic acid N-pyrimidin-2-yl-acetamide] and `Cc1ccccc1NC(=O)[C@@]12CC[C@]3(C)[C@H](CC[C@@H]4[C@@]5(C)CC[C@H](OC(=O)CC(C)(C)C(=O)O)C(C)(C)[C@@H]5CC[C@]43C)C1=C(C(C)C)C(=O)C2` [9-47, 3β-O-(3′,3′-Dimethylsuccinyl)-21-oxolup-18-en-28-oic acid N-2-methyl-phen-1-yl acetamide] cannot be ordered by IC50: under 199 nM for the first, under 199 nM for the second.

`CC(C)NC(=O)N1CCN(C(=O)[C@@]23CC[C@]4(C)[C@H](CC[C@@H]5[C@@]6(C)CC[C@H](OC(=O)CC(C)(C)C(=O)O)C(C)(C)[C@@H]6CC[C@]54C)C2=C(C(C)C)C(=O)C3)CC1` [9-39, 3β-O-(3′,3′-Dimethylsuccinyl)-21-oxolup-18-en-28-oic acid N-(4-N′-isopropylureido-1-piperazine)-acetamide] and `CC(C)NC(=O)NC1CCN(C(=O)[C@@]23CC[C@]4(C)[C@H](CC[C@@H]5[C@@]6(C)CC[C@H](OC(=O)CC(C)(C)C(=O)O)C(C)(C)[C@@H]6CC[C@]54C)C2=C(C(C)C)C(=O)C3)CC1` [9-44, 3β-O-(3′,3′-Dimethylsuccinyl)-21-oxolup-18-en-28-oic acid N-[(4-amino-N′-isopropylureido)-1-piperidine]-acetamide] cannot be ordered by IC50: under 199 nM for the first, under 199 nM for the second.

`CC(C)C1=C2[C@H]3CC[C@@H]4[C@@]5(C)CC[C@H](OC(=O)CC(C)(C)C(=O)O)C(C)(C)[C@@H]5CC[C@@]4(C)[C@]3(C)CC[C@@]2(C(=O)N2CCC(NC(=O)OC(C)(C)C)CC2)CC1=O` [9-41, 3β-O-(3′,3′-Dimethylsuccinyl)-21-oxolup-18-en-28-oic acid N-(4-aminocarboxylic acid tert-butyl-ester-1-piperidine)-acetamide] and `COC(=O)NC1CCN(C(=O)[C@@]23CC[C@]4(C)[C@H](CC[C@@H]5[C@@]6(C)CC[C@H](OC(=O)CC(C)(C)C(=O)O)C(C)(C)[C@@H]6CC[C@]54C)C2=C(C(C)C)C(=O)C3)CC1` [9-45, 3β-O-(3′,3′-Dimethylsuccinyl)-21-oxolup-18-en-28-oic acid N-(4-aminocarboxylic acid methyl ester-1-piperidine)-acetamide] cannot be ordered by IC50: under 199 nM for the first, under 199 nM for the second.

`CC(C)C1=C2[C@H]3CC[C@@H]4[C@@]5(C)CC[C@H](OC(=O)CC(C)(C)C(=O)O)C(C)(C)[C@@H]5CC[C@@]4(C)[C@]3(C)CC[C@@]2(C(=O)N2CCC(N)CC2)CC1=O` [9-42] and `CC(=O)NC1CCN(C(=O)[C@@]23CC[C@]4(C)[C@H](CC[C@@H]5[C@@]6(C)CC[C@H](OC(=O)CC(C)(C)C(=O)O)C(C)(C)[C@@H]6CC[C@]54C)C2=C(C(C)C)C(=O)C3)CC1` [9-43, 3β-O-(3′,3′-Dimethylsuccinyl)-21-oxolup-18-en-28-oic acid N-(4-acetylamino-1-piperidine)-acetamide] cannot be ordered by IC50: under 199 nM for the first, under 199 nM for the second.

`CC(C)C1=C2[C@H]3CC[C@@H]4[C@@]5(C)CC[C@H](OC(=O)CC(C)(C)C(=O)O)C(C)(C)[C@@H]5CC[C@@]4(C)[C@]3(C)CC[C@@]2(C(=O)N2CCN(C)C(=O)C2)CC1=O` [9-46, 3β-O-(3′,3′-Dimethylsuccinyl)-21-oxolup-18-en-28-oic acid N-4-(1-methyl-piperazi-2-one)-acetamide] and `Cc1cccc(NC(=O)[C@@]23CC[C@]4(C)[C@H](CC[C@@H]5[C@@]6(C)CC[C@H](OC(=O)CC(C)(C)C(=O)O)C(C)(C)[C@@H]6CC[C@]54C)C2=C(C(C)C)C(=O)C3)c1` [9-48, 3β-O-(3′,3′-Dimethylsuccinyl)-21-oxolup-18-en-28-oic acid N-3-methyl-phen-1-yl acetamide] cannot be ordered by IC50: under 199 nM for the first, under 199 nM for the second.

With `Cc1ccc(NC(=O)[C@@]23CC[C@]4(C)[C@H](CC[C@@H]5[C@@]6(C)CC[C@H](OC(=O)CC(C)(C)C(=O)O)C(C)(C)[C@@H]6CC[C@]54C)C2=C(C(C)C)C(=O)C3)cc1` [9-49, 3β-O-(3′,3′-Dimethylsuccinyl)-21-oxolup-18-en-28-oic acid N-4-methyl-phen-1-yl acetamide] the IC50 was under 199 nM.
